Here are results for 16 compounds from EP1180991B1, “GAMBOGIC ACID DERIVATIVES AS ACTIVATORS OF CASPASES AND INDUCERS OF APOPTOSIS” (Cytovia, Inc., priority 1999, dated 2000).

The term EC50 denotes the concentration at which the effect is half-maximal.

Data set [1] relates to PC-3. Briefly: Caspase cascade activation by known antineoplastic compounds (Example 92). The settings on record: for fold induction at 10 µM: Homo sapiens, PC-3, 24 h, read-out: ratio of the net RFU value for test compounds to that of control samples (caspase cascade activation).
Method: (§5) The samples were mixed by agitation and then incubated at 37° C for 24 h in a 5% CO2-95% humidity incubator. […] The samples were mixed by agitation and incubated for 3 h at room temperature. […] After the 3 h incubation, the samples were read for fluorescence as above (T = 3 h).
(§6) The Relative Fluorescence Unit values (RFU) were used to calculate the sample readings as follows: RFU(T=3⁢hr) −Control RFU(T=0) = Net RFU(T=3⁢hr) [formula]
(§7) The activity in caspase cascade activation was determined by the ratio of the net RFU value for test compounds to that of control samples.
In data set [2] the test system is T-47D. The data set is described as above. The settings on record: 24 h; for fold induction at 10 µM: Homo sapiens, T47D, read-out: ratio of the net RFU value for test compounds to that of control samples (caspase cascade activation).
Method: as §5, §6, §7
For the next data set, the system named is HL-60. Briefly: Caspase cascade activation assay (Example 90). Format: cell-based, human. The settings on record: HL-60; 24 h incubation, 0.16 to 10 µM final; net RFU ratio to control. How it is done: (§1) Human breast cancer cell lines T-47D and ZR-75-1, human prostate cancer cell line PC-3, human leukemia cancer cell line HL-60 and human non-transformed fibroblast cell line MRC-5 cells were grown according to media component mixtures designated by The American Type Culture Collection + 10% FCS (Life Technologies, Inc.), in a 5% CO2 -95% humidity incubator at 37° C. T-47D, ZR-75-1 and PC-3 cells were maintained at a cell density between 30 and 80% confluency and for HL-60 at a cell density of 0.1 to 0.6 x 10^6 cells/ml. Cells were harvested at 600xg and resuspended at 0.65 x 10^6 cells/ml into appropriate media + 10% FCS. […] The samples were mixed by agitation and incubated at room temperature.
(§2) The EC50 (nM) was determined by a sigmoidal dose-response calculation (Prism 2.0, GraphPad Software Inc.). Caspase Activity and Potency

A further data set relates to MRC-5. Briefly: Caspase cascade activation assay (Example 90). Format: cell-based, human. The settings on record: MRC-5 non-transformed fibroblasts, 24 h incubation; for caspase activity (Ratio): 0.16 to 10 µM final, net RFU ratio to control. How it is done:
as §1, §2

The next data set concerns ZR-75-1. As to the kind of experiment: Caspase cascade activation assay (Example 90). Format: cell-based, human. The settings on record: ZR-75-1, 24 h incubation; for caspase activity (Ratio): 0.16 to 10 µM final, net RFU ratio to control. How it is done: as §1, §2
In data set [3] the test system is T-47D. Briefly: Caspase cascade activation assay (Example 90). Format: cell-based, human. The settings on record: T-47D, 24 h incubation; for caspase activity (Ratio): 0.16 to 10 µM final, net RFU ratio to control; for EC50: Homo sapiens, T47D, caspase activation, read-out: EC50. How it is done: as §1, §2
Data set [4] concerns PC-3. As to the kind of experiment: Caspase cascade activation assay (Example 90). Format: cell-based, human. The settings on record: PC-3, 24 h incubation; for caspase activity (Ratio): 0.16 to 10 µM final, net RFU ratio to control; for EC50: Homo sapiens, caspase activation, read-out: EC50. As to the method:
as §1, §2

The subject of a further data set is T47D cells. As to the kind of experiment: PARP cleavage, western blot (Example 98). Format: cell-based, human. The settings on record: 1 µM, 2 h and 4 h (Fig. 5C). As to the method:
(§3) Cleavage of the enzyme poly(ADP)ribose polymerase (PARP) by caspase-3 and related proteases is considered to be one of the molecular hallmarks of caspase-mediated apoptosis. Therefore, the ability of gambogic acid to induce PARP cleavage in four different human tumor cell lines (Jurkat cells, HL-60 cells, T47D cells and PC3 cells) was determined.
(§4) […] Control cultures were treated with a drug vehicle (DMSO), or the well-characterized apoptosis inducer, staurosporine. At the end of the apoptosis induction period, the cells were harvested, washed once with PBS, quick-frozen on dry ice, and stored at -80° C. The cells were then lysed in a standard immunoblotting lysis buffer and samples of the lysates were electrophoresed on 4% to 20% gradient polyacrylamide gels. The proteins in the gels were then transferred to PVDF membranes and probed with a commercially-available rabbit polyclonal antibody to PARP.
(Immunoblotting shows a protein as a band on a membrane.)

In another data set the test system is PC3 cells. As to the kind of experiment: PARP cleavage, western blot (Example 98). The settings on record: 1 µM, 2 h and 4 h (Fig. 5D). Format: cell-based, human. As to the method:
as §3, §4

The test system of another data set is KB. The settings on record: Lin et al. 1993; cited from earlier work.
The next data set has as its system KB-V1. The settings on record: Lin et al. 1993; cited from earlier work.

For `COc1cc([C@@H]2c3cc4c(cc3[C@@H](O[C@@H]3O[C@@H]5CO[C@@H](C)O[C@H]5[C@H](O)[C@H]3O)[C@H]3COC(=O)[C@H]23)OCO4)cc(OC)c1O` [Etoposide], the fold induction at 10 µM is 0.8 with PC-3 [1] and 1 with T-47D [2].

For `CC[C@]1(O)C[C@@H]2CN(CCc3c([nH]c4ccccc34)[C@@](C(=O)OC)(c3cc4c(cc3OC)N(C)[C@H]3[C@@](O)(C(=O)OC)[C@H](OC(C)=O)[C@]5(CC)C=CCN6CC[C@]43[C@@H]65)C2)C1` [Vinblastine], the fold induction at 10 µM stood at 0.8 with PC-3 [1] and 0.9 in the data set on T-47D [2].

With `CC(C)=CCCC1(C)C=Cc2c(O)c3c(c(CC=C(C)C)c2O1)OC12C(=CC4CC1C(C)(C)OC2(C/C=C(/C)C(=O)N1CCCCC1)C4=O)C3=O` (stereo not drawn) [Example 5, Gambogyl Piperidine], the “caspase activity (Ratio)” value in the data set on HL-60 was found to be 5.2; in the data set on MRC-5, 12.6; with ZR-75-1, 14.3; in the data set on T-47D [3], 13.9; in the data set with PC-3 [4] it was 2.7.

For `CC[C@@]1(O)C(=O)OCc2c1cc1n(c2=O)Cc2cc3ccccc3nc2-1` [Camptothecin], the values for the fold induction at 10 µM in the data set with PC-3 [1] and with T-47D [2] were 0.6 and 0.7, respectively.

`CN[C@@H]1C[C@H]2O[C@@](C)([C@@H]1OC)n1c3ccccc3c3c4c(c5c6ccccc6n2c5c31)C(=O)NC4` [staurosporine, reference compound]: the PARP cleavage result in the data set on T47D cells and in the data set with PC3 cells was “no cleavage of PARP” throughout.

Take `COc1cccc2c1C(=O)c1c(O)c3c(c(O)c1C2=O)C[C@@](O)(C(=O)CO)C[C@@H]3O[C@H]1C[C@H](N)[C@H](O)[C@H](C)O1` [Doxorubicin]: the fold induction at 10 µM with PC-3 [1] stood at 1.1; with T-47D [2] it was 1.3.

Isogambogic Acid [Example 18]: the cytotoxicity result with KB and with KB-V1 was “cytotoxic” each time.

As to `CC(C)=CCc1c2c(c(O)c3c1OC14C(=CC5CC1C(C)(C)OC4(C/C=C(\C)CO)C5=O)C3=O)C=CC(C)(C)O2` (stereo not drawn) [isomorellinol, reference compound], the cytotoxicity entry in the data set with KB and with KB-V1 was “cytotoxic” each time.

Take `COC(=O)/C(C)=C\CC12OC(C)(C)C3CC(C=C4C(=O)c5c(OC)c6c(c(CC=C(C)C)c5OC431)OC(C)(CCC=C(C)C)C=C6)C2=O` (stereo not drawn) [Example 6, Methyl-6-methoxy-gambogate]: the “caspase activity (Ratio)” value with T-47D [3] is listed as 12.0; in the data set on PC-3 [4] it was 4.5.

On to `CC(C)=CCC/C(C)=C/Cc1c(O)c(CC=C(C)C)c2c(c1O)C(=O)C1=CC3CC4C(C)(C)OC(C/C=C(/C)C=O)(C3=O)C14O2` (stereo not drawn) [Example 3, Gambogenin], for which, in the data set on T-47D [3], the EC50 stood at 1000 nM and the “caspase activity (Ratio)” value is given as 7.0. In the data set on PC-3 [4], the EC50 was found to be 1700 nM and the “caspase activity (Ratio)” value was 2.9.

Consider `COc1c2c(c(CC=C(C)C)c3c1C(=O)C1=CC4CC5C(C)(C)OC(C/C=C(/C)C(=O)N6CCCCC6)(C4=O)C15O3)OC(C)(CCC=C(C)C)C=C2` (stereo not drawn) [Example 7, 6-Methoxy-gambogyl Piperidine], for which the EC50 came out at 1200 nM in the data set on MRC-5 (Homo sapiens, MRC5, caspase activation, read-out: EC50); 1650 nM in the data set on ZR-75-1 (Homo sapiens, caspase activation, read-out: EC50); 830 nM in the data set with T-47D [3]; 1700 nM with PC-3 [4].

`CC(C)=CCC/C(C)=C/Cc1c(O)c(CC=C(C)C)c2c(c1O)C(=O)C1=CC3CC4C(C)(C)OC(C/C=C(/C)C(=O)O)(C3=O)C14O2` (stereo not drawn) [Example 2, Gambogenic Acid]: the “caspase activity (Ratio)” value in the data set on HL-60 was 5.6; in the data set with MRC-5, 22.4; with ZR-75-1, 14.2; in the data set with T-47D [3] it was 16.9; in the data set on PC-3 [4], 2.9.

Regarding `CC(=O)O[C@H]1C(=O)[C@@]2(C)[C@H]([C@H](OC(=O)c3ccccc3)[C@]3(O)C[C@H](OC(=O)[C@H](O)[C@@H](NC(=O)c4ccccc4)c4ccccc4)C(C)=C1C3(C)C)[C@]1(OC(C)=O)CO[C@@H]1C[C@@H]2O` [Taxol], the fold induction at 10 µM with PC-3 [1] was 0.7; in the data set with T-47D [2] it was 0.9.

As to `O=c1[nH]cc(F)c(=O)[nH]1` [5-fluorouracil], the fold induction at 10 µM with PC-3 [1] came to 0.7; in the data set on T-47D [2], 0.8.

For the compound `CN(Cc1cnc2nc(N)nc(N)c2n1)c1ccc(C(=O)N[C@@H](CCC(=O)O)C(=O)O)cc1` [Methotrexate], the fold induction at 10 µM with PC-3 [1] amounted to 0.7; with T-47D [2], 0.8.

Turning to `N.N.[Cl][Pt][Cl]` [Cisplatin], the “ratio of the net RFU value for test compounds to that of control samples (caspase cascade activation)” value is 0.9 with PC-3 [1] (PC-3, 10 µM final, 24 h, ratio around 1 = not an efficient activator) and 1.1 in the data set with T-47D [2] (T-47D, 10 µM final, ratio around 1 = not an efficient activator).
